Data taken from US11484539B2, “Compounds and their uses for alleviating menopause-associated symptoms” (Estetra SPRL, priority 2018, dated 2022).

System: post-menopausal women
Test: Weekly frequency of moderate to severe VMS, dose-finding study
Format: in vivo
Details: for Difference with placebo, LS adjusted mean, absolute change in weekly frequency of moderate to severe VMS / Difference with placebo, LS adjusted mean, relative change in weekly frequency of moderate to severe VMS: 2.5 mg E4 vs placebo
Text: To determine the Minimum Effective Dose (MED), firstly the selection criteria required that patients presented at least 7 moderate to severe VMS/day or at least 50 moderate to severe VMS/week in the week preceding randomization. Secondly, a placebo group was included in a double-blind fashion. Thirdly, the total patient number was such that statistical significance could be obtained between separate arms of the study. Fourthly, the absolute change from baseline in weekly frequency of moderate to severe VMS was taken into account. An analysis of covariance (ANCOVA) was performed based on the untransformed change in weekly frequency of moderate to severe VMS from baseline. Finally, the change in severity from baseline was evaluated. For this, the Severity Scoring System of VMS was documented by the subjects as follows: • a score of Mild (1) for a sensation of heat without sweating; • a score of Moderate (2) for a sensation of heat with sweating/the subject is able to continue activity; and • a score of Severe (3) for a sensation of heat with sweating/which causes cessation of activity.
Enrolment was approximately 18 months. Individual subject participation was up to 27 weeks: up to 6 weeks pre-screening and washout, up to 4 weeks screening and run-in period, up to 91 days (13 weeks) of E4/placebo treatment followed by 2 weeks (14 days) of progestin therapy and a Follow up visit 1 week after completion of progestin therapy in non-hysterectomised subjects only.
To define the minimum effective dose (MED) of the oral dose of E4 by evaluating changes in frequency and in severity of moderate to severe vasomotor symptoms (VMS).
This was a prospective, multicentre, randomised, placebo-controlled, double-blinded, dose-finding study.
Eligible subjects were hysterectomised and non-hysterectomised post-menopausal women aged 40 to 65 years, inclusive, presenting at least 7 moderate to severe hot flushes/day or at least 50 moderate to severe hot flushes/week.
The subjects have met all of the following inclusion criteria at the randomization visit. These criteria were assessed during the screening period: • 1. Women aged 40 to 65 years, inclusive, presenting at least 7 moderate to severe hot flushes/day or at least 50 moderate to severe hot flushes/week in the week preceding randomization. • 2. Body Mass Index (BMI) between 18.0 and 35.0 kg/m^2, inclusive. • 3. Post-menopausal status defined as levels of follicle stimulating hormone (FSH) >40 IU/L and: • amenorrhoea for at least 12 consecutive months or, • amenorrhoea for at least 6 months with estradiol (E2)<20 pg/mL or, • at least 6 weeks post-surgical bilateral oophorectomy with or without hysterectomy with a copy of the pathology report or a statement on letterhead from the subject's physician documenting both ovaries were removed is required. • 4. For non-hysterectomised women: intact uterus with bi-layer endometrial thickness […] on TVUS. • 5. Negative pregnancy test. • 6. Good physical and mental health, in the judgement of the Principal Investigator (PI), on the basis of medical, surgical and gynaecological history, physical examination, gynaecological examination, clinical laboratory, and vital signs. • 7. Subject has provided signed and dated written informed consent before admission to the study. • 8. Subject is able to understand and comply with the protocol requirements, instructions, and protocol-stated restrictions. Exclusion Criteria:
All treatments (Estetrol, hereinafter, E4, [2.5 mg, 5 mg, 10 mg, 15 mg] capsule) were administered once daily (QD) per os for at least 12 consecutive weeks until the last biological assessments (Day 91 maximum) had been performed.
In order to analyse the data recorded in this study, treatment groups have been compared using an ANCOVA (analysis of covariance) with respect to the change in weekly frequency of moderate to severe VMS from baseline to weeks 4 and 12. […]

[1] = 2.5 mg E4, week 4, ANCOVA with study centre
[2] = 2.5 mg E4, week 4, without site effect
[3] = 2.5 mg E4, week 12, ANCOVA with study centre
[4] = 2.5 mg E4, week 12, without site effect
[5] = week 4, ANCOVA with study centre
[6] = week 12, ANCOVA with study centre
[7] = 5 mg E4, week 4, ANCOVA with study centre
[8] = 5 mg E4, week 4, without site effect
[9] = 5 mg E4, week 12, ANCOVA with study centre
[10] = 5 mg E4, week 12, without site effect

C[C@]12CC[C@@H]3c4ccc(O)cc4CC[C@H]3[C@@H]1[C@@H](O)[C@@H](O)[C@@H]2O [E4, 1,3,5 (10)-estratrien-3,15alpha,16alpha,17beta-tetrol]
LS adjusted mean change from baseline in weekly frequency of moderate to severe VMS [1]: −32.26 | LS adjusted mean relative change (%) from baseline in weekly frequency of moderate to severe VMS [1]: -48.5% | LS adjusted mean change from baseline in weekly frequency of moderate to severe VMS [2]: −32.68 | LS adjusted mean relative change (%) from baseline in weekly frequency of moderate to severe VMS [2]: -49.5% | LS adjusted mean change from baseline in weekly frequency of moderate to severe VMS [3]: −40.13 | LS adjusted mean relative change (%) from baseline in weekly frequency of moderate to severe VMS [3]: -60.6% | LS adjusted mean change from baseline in weekly frequency of moderate to severe VMS [4]: −40.68 | LS adjusted mean relative change (%) from baseline in weekly frequency of moderate to severe VMS [4]: -62.2% | Mean change from baseline in weekly frequency of moderate to severe VMS (2.5 mg E4 QD per os, week 1): −17.28 | Relative change (% from baseline) in weekly frequency of moderate to severe VMS, mean (2.5 mg E4 QD per os, week 1): −23% | Mean change from baseline in weekly frequency of moderate to severe VMS (2.5 mg E4 QD per os, week 2): −25.10 | Relative change (% from baseline) in weekly frequency of moderate to severe VMS, mean (2.5 mg E4 QD per os, week 2): −34% | Mean change from baseline in weekly frequency of moderate to severe VMS (2.5 mg E4 QD per os, week 3): −32.46 | Relative change (% from baseline) in weekly frequency of moderate to severe VMS, mean (2.5 mg E4 QD per os, week 3): −44% | Mean change from baseline in weekly frequency of moderate to severe VMS (2.5 mg E4 QD per os, week 4): −35.89 | Relative change (% from baseline) in weekly frequency of moderate to severe VMS, mean (2.5 mg E4 QD per os, week 4): −49% | Mean change from baseline in weekly frequency of moderate to severe VMS (2.5 mg E4 QD per os, week 5): −37.16 | Relative change (% from baseline) in weekly frequency of moderate to severe VMS, mean (2.5 mg E4 QD per os, week 5): −50% | Mean change from baseline in weekly frequency of moderate to severe VMS (2.5 mg E4 QD per os, week 6): −39.98 | Relative change (% from baseline) in weekly frequency of moderate to severe VMS, mean (2.5 mg E4 QD per os, week 6): −54% | Mean change from baseline in weekly frequency of moderate to severe VMS (2.5 mg E4 QD per os, week 7): −42.44 | Relative change (% from baseline) in weekly frequency of moderate to severe VMS, mean (2.5 mg E4 QD per os, week 7): −57% | Mean change from baseline in weekly frequency of moderate to severe VMS (2.5 mg E4 QD per os, week 8): −43.62 | Relative change (% from baseline) in weekly frequency of moderate to severe VMS, mean (2.5 mg E4 QD per os, week 8): −58% | Mean change from baseline in weekly frequency of moderate to severe VMS (2.5 mg E4 QD per os, week 9): −45.19 | Relative change (% from baseline) in weekly frequency of moderate to severe VMS, mean (2.5 mg E4 QD per os, week 9): −61% | Mean change from baseline in weekly frequency of moderate to severe VMS (2.5 mg E4 QD per os, week 10): −45.54 | Relative change (% from baseline) in weekly frequency of moderate to severe VMS, mean (2.5 mg E4 QD per os, week 10): −61% | Mean change from baseline in weekly frequency of moderate to severe VMS (2.5 mg E4 QD per os, week 11): −44.74 | Relative change (% from baseline) in weekly frequency of moderate to severe VMS, mean (2.5 mg E4 QD per os, week 11): −60% | Mean change from baseline in weekly frequency of moderate to severe VMS (2.5 mg E4 QD per os, week 12): −45.04 | Relative change (% from baseline) in weekly frequency of moderate to severe VMS, mean (2.5 mg E4 QD per os, week 12): −61% | Difference with placebo, LS adjusted mean, absolute change in weekly frequency of moderate to severe VMS [5]: 1.536 | Difference with placebo, LS adjusted mean, relative change in weekly frequency of moderate to severe VMS [5]: 0.005984 | Difference with placebo, LS adjusted mean, absolute change in weekly frequency of moderate to severe VMS (week 4, without site effect): 0.9721 | Difference with placebo, LS adjusted mean, relative change in weekly frequency of moderate to severe VMS (week 4, without site effect): −0.005455 | Difference with placebo, LS adjusted mean, absolute change in weekly frequency of moderate to severe VMS [6]: 3.603 | Difference with placebo, LS adjusted mean, relative change in weekly frequency of moderate to severe VMS [6]: 0.03673 | Difference with placebo, LS adjusted mean, absolute change in weekly frequency of moderate to severe VMS (week 12, without site effect): 3.246 | Difference with placebo, LS adjusted mean, relative change in weekly frequency of moderate to severe VMS (week 12, without site effect): 0.02897 | LS adjusted mean change from baseline in weekly frequency of moderate to severe VMS [7]: −27.44 | LS adjusted mean relative change (%) from baseline in weekly frequency of moderate to severe VMS [7]: -42.2% | LS adjusted mean change from baseline in weekly frequency of moderate to severe VMS [8]: −27.87 | LS adjusted mean relative change (%) from baseline in weekly frequency of moderate to severe VMS [8]: -43.1% | LS adjusted mean change from baseline in weekly frequency of moderate to severe VMS [9]: −40.68 | LS adjusted mean relative change (%) from baseline in weekly frequency of moderate to severe VMS [9]: -60.3% | LS adjusted mean change from baseline in weekly frequency of moderate to severe VMS [10]: −41.01 | LS adjusted mean relative change (%) from baseline in weekly frequency of moderate to severe VMS [10]: -61.4% | Mean change from baseline in weekly frequency of moderate to severe VMS (5 mg E4 QD per os, week 1): −15.04 | Relative change (% from baseline) in weekly frequency of moderate to severe VMS, mean (5 mg E4 QD per os, week 1): −23% | Mean change from baseline in weekly frequency of moderate to severe VMS (5 mg E4 QD per os, week 2): −21.68
